In patent EP2332529A1, “Substituted aromatic diamines as ligands of vesicular glutamate transporter 1 and 2 (vGLUT1 and vGLUT2)” (Grünenthal GmbH, priority 2009, dated 2011):
pIC50: −log10 of the molar value. Like-named read-outs stand apart in the source and are kept apart here.

Assays:
[1] = system: vGLUT1- bzw. vGLUT2-Transporter; test: Glutamate uptake in rat crude synaptic vesicles ([3H]-glutamate); format: biochemical, Ratte; settings: for vGLUT (Ratte), Hemmung [%]: test concentration not given
Description: Die agonistische bzw. antagonistische Wirkung der zu untersuchenden Verbindungen am vGLUT1- bzw. vGLUT2-Transporter der Spezies Ratte kann mit folgendem Assay bestimmt werden.
Glutamat-Uptake in Rattenvesikel ('rat crude synaptic vesicles')
Die Präparation von Vesikeln wurde aus Rattengehirn-Homogenaten (männlichen Ratten, Stamm Wistar SPF, 150-250 g Gewicht) durchgeführt gemäß Roseth et al. (1995) J. Neurochem. 65: 96-103, der sich auf Whittaker et al. (1964) Biochem J. 90, 293-303 und Fykse und Fonnum (1988) J. Neurochem. 50: 1237-1242 bezieht.
Hierzu wurden frisch entnommene Rattengehirne in 0,32 M Saccharose, 10 mM TRIS-maleat, 1 mM EGTA, pH 7,4 (10 ml/g Frischgewicht) mit einem Potter-Homogenisator (Fa. Braun/Melsungen; 5 Kolbenhübe bei 800 Upm) unter Eiskühlung homogenisiert und anschließend für 10 Minuten bei 3.000 g und 4°C zentrifugiert. Der resultierende Überstand wurde bei 20.000 g für 30 Minuten bei 4°C zentrifugiert. Das entstandene Pellet wurde dann im Verhältnis 1:3 mit 10 mM TRIS-maleate, 0,1 mM EGTA, pH 7,4 osmotisch geschockt und die Suspension bei 17000g für 30 min (4°C) zentrifugiert. Die im Überstand verbliebenen Vesikel wurden nun auf einen Dichtegradienten aus 0,6 M Saccharose in 10 mM TRIS-maleat, 1 mM EGTA, pH 7.4 und 0.4 M Saccharose in 10 mM TRIS-maleat, 1 mM EGTA, pH 7.4 geschichtet. Eine Ultrazentrifugation der Gradienten im Ausschwingrotor bei 65000g für 2h (4°C) schloss sich an. Die Vesikel-Fraktion wurde von der 0.4 M Saccharose-Bande isoliert und im Uptake-Versuch eingesetzt.
Die Substratlösung für den Uptake von [^3H]-Glutamat bestand aus ATP (neutralisiert mit Trisma base; 2 mM im Endansatz), Glutamat (0.5 mM im Endansatz) und ^3H-Glutamat (0.5 µCi im Endansatz). In 14 ml-Reagiergefäßen (Sarstedt, Artikel-Nr.: 798438) wurden jeweils 0,3 ml Gesamtvolumina (n=2/Probe) pipettiert in der folgenden Reihenfolge: 1.) 165 µl Inkubationspuffer (110 mM Kaliumtartrat, 10 mM TRIS-maleat, pH 7,4, 4 mM MgCl2), 2.) 10 µl Testsubstanz oder Vehikelkontrolle oder blank, 3.) 100 µl synaptische Vesikel. Es schloss sich eine Vorinkubation von 15 min bei 30°C an (nur blank-Ansätze befanden sich hierbei auf Eis). Danach wurde der Uptake durch Zugabe von 25 µl der oben beschriebenen Substratlösung gestartet. Die Reaktion wurde nach 5 min durch Zugabe von 7,0 ml eiskalter 150 mM KCl gestoppt. Anschließend wurden die Proben mit Hilfe des Brandel Cell Harvesters Typ M-24R über einen Membranfilter der Porengröße 0,8 µm abgesaugt und zweimal mit eiskalter 150 mM KCl nachgewaschen. Die Messung erfolgte am beta-Counter nach 15 h in 10 ml Szintillatorflüssigkeit (Filter Count).

Sprague-Dawley Ratten = test: Neuropathic pain in the rat, Bennett model (chronic constriction injury, cold allodynia); format: in vivo, Ratte
Description: Die Untersuchung auf Wirksamkeit im neuropathischen Schmerz wurde im Bennett-Modell (chronic constriction injury; Bennett und Xie, 1988, Pain 33: 87-107) untersucht.
Sprague-Dawley Ratten mit einem Gewicht von 140-160 g werden unter Nembutal-Narkose mit vier losen Ligaturen des rechten nervus ischiaticus versehen. Die Tiere entwickeln an der vom geschädigten Nerv innervierten Pfote eine Überempfindlichkeit, die nach einer Erholungsphase von einer Woche über etwa vier Wochen mittels einer 4°C kalten Metallplatte quantifiziert wird (Kälte-Allodynie). Die Tiere werden für einen Zeitraum von 2 min. auf dieser Platte beobachtet und die Anzahl der Wegziehreaktionen der geschädigten Pfote wird gemessen. Bezogen auf den Vorwert vor Substanzapplikation wird die Substanzwirkung über einen Zeitraum von einer Stunde an vier Zeitpunkten (15, 30, 45, 60 min. nach Applikation) bestimmt und die resultierend Fläche unter der Kurve (AUD) sowie die Hemmung der Kälte-Allodynie zu den einzelnen Messpunkten in Prozent Wirkung zur Vehikelkontrolle (AUD) bzw. zum Ausgangswert (Einzelmesspunkte) ausgedrückt (%MPE). Die Gruppengröße beträgt n=10, die Signifikanz einer anti-allodynischen Wirkung wird über eine Varianzanalyse (repeated measures ANOVA; * p ≤ 0.05; Armitage und Berry, 1987, Stat. Methods in Medical Research, London: Blackwell Scientific Publications) bestimmt.

NMRI-Mäuse = test: Phenylquinone-induced writhing test in the mouse; format: in vivo; settings: 10 mg/kg
Description: Die Untersuchung der Verbindungen der allgemeinen Formel (I) auf analgetische Wirksamkeit wurde im Phenylchinon-induzierten Writhing an der Maus, modifiziert nach I.C. Hendershot und J. Forsaith (1959) J. Pharmacol. Exp. Ther. 125, 237-240 durchgeführt. Die entsprechende Literaturbeschreibung wird hiermit als Referenz eingeführt und gilt als Teil der Offenbarung.
Dazu wurden männliche NMRI-Mäuse mit einem Gewicht von 25 bis 30 g verwendet. Gruppen von 10 Tieren pro Verbindungsdosis erhielten 10 Minuten nach intravenöser Gabe der zu untersuchenden Verbindungen 0,3 ml/Maus einer 0.02%igen wässrigen Lösung von Phenylchinon (Phenylbenzochinon, Fa. Sigma, Deisenhofen, Deutschland; Herstellung der Lösung unter Zusatz von 5 Gew.-% Ethanol und Aufbewahrung im Wasserbad bei 45°C) intraperitoneal appliziert. Die Tiere wurden einzeln in Beobachtungskäfige gesetzt. Mit Hilfe eines Drucktastenzählers wurde die Anzahl der schmerzinduzierten Streckbewegungen (sogenannte Writhingreaktionen = Durchdrücken des Körpers mit Abstrecken der Hinterextremitäten) 5 bis 20 Minuten nach der Phenylchinon-Gabe ausgezählt. Als Kontrolle wurden Tiere mit geführt, die Vehikellösung (i.v.) und Phenylchinon (i.p.)erhalten hatten. Alle Verbindungen wurden in der Standarddosierung von 10 mg/kg getestet. […]

Mäusen (NMRI) = test: Formalin test in the mouse (second phase); format: in vivo; settings: Maus i.p., 21,5 mg/kg
Description: Die Untersuchung zur Bestimmung der antinociceptiven Wirkung der Verbindungen der allgemeinen Formel (I) wird im Formalin-Test an männlichen Mäusen (NMRI, 25 bis 35 g Körpergewicht, Iffa, Credo, Belgien) durchgeführt.
Im Formalin-Test werden gemäß D. Dubuisson et al., Pain 1977, 4, 161-174 die erste (frühe) Phase (0 bis 15 Minuten nach der Formalin-Injektion) und die zweite (späte) Phase (15 bis 60 Minuten nach der Formalin-Injektion) unterschieden. Die frühe Phase stellt als direkte Reaktion auf die Formalin-Injektion ein Modell für Akutschmerz dar, während die späte Phase als Modell für persistierenden (chronischen) Schmerz angesehen wird (T. J. Coderre et al., Pain 1993, 52, 259-285). Die entsprechenden Literaturbeschreibungen werden hiermit als Referenz eingeführt und gelten als Teil der Offenbarung. […]
Anschließend wird für einen Untersuchungszeitraum von drei Minuten in der zweiten (späten) Phase des Formalin-Tests (21 bis 24 Minuten nach der Formalin-Injektion) das nociceptive Verhalten durch Beobachtung der Tiere kontinuierlich erfasst. Die Quantifizierung des Schmerzverhaltens erfolgt durch Summation der Sekunden, in denen die Tiere in dem Untersuchungszeitraum ein Lecken und Beißen der betroffenen Pfote zeigen. […]

[2] = compound freshly dissolved from the solid substance, read-out: vGLUT (Ratte), IC50-Fest

For “2,2'-(3,3'-Sulfonyl-bis-(4,1-phenylen)-bis-(azanediyl))-bis-(oxomethylen)-bis-(azanediyl)dibenzoesäure [Beispiel 10]”, the pIC50 [1, 2] was 5.63 and the “vGLUT (Ratte), Hemmung [%]” value [1] was 86%.
For O=C(Cc1ccccc1)Nc1ccc(Cc2ccc(NC(=O)Cc3ccccc3)c(C(=O)O)c2)cc1C(=O)O [Beispiel 1, 5,5'-Methylen-bis(2-(2-phenylacetamido)benzoesäure)], the pIC50 ([1]; read-out: vGLUT (Ratte), IC50) was 5.04 and the “vGLUT (Ratte), Hemmung [%]” value [1] was 61%.
CC(=O)Nc1cc(C(=O)c2ccc(C(=O)O)c(NC(C)=O)c2)ccc1C(=O)O [Beispiel 2, 4,4'-Carbonyl-bis(2-acetamidobenzoesäure)] was tested, and the “vGLUT (Ratte), Hemmung [%]” value [1] was 47%.
In the case of O=C(c1ccc(C(=O)O)c(NC(=O)c2cccc3ccccc23)c1)c1ccc(C(=O)O)c(NC(=O)c2cccc3ccccc23)c1 [Beispiel 3, 4,4'-Carbonyl-bis(2-(1-naphthamido)benzoesäure)], the pIC50 ([1]; read-out: vGLUT (Ratte), IC50) was 6.42 and the “vGLUT (Ratte), Hemmung [%]” value [1] was 97%.
With Nc1ccccc1C(=O)Nc1ccc(-c2ccc(NC(=O)c3ccccc3N)c(C(=O)O)c2)cc1C(=O)O [Beispiel 4, 4,4'-Bis-(2-amino-benzoylamino)-biphenyl-3,3'-dicarbonsäure] the pIC50 [1, 2] was 7.03, the pIC50 ([1]; read-out: vGLUT (Ratte), IC50) was 7.36 and the “vGLUT (Ratte), Hemmung [%]” value [1] was 99%.
O=C(O)c1cc(-c2ccc(NC(=O)c3cccc4ccccc34)c(C(=O)O)c2)ccc1NC(=O)c1cccc2ccccc12 [Beispiel 5, 4,4'-Bis-[(naphthalin-1-carbonyl)-amino]-biphenyl-3,3'-dicarbonsäure] was tested, and the “vGLUT (Ratte), Hemmung [%]” value [1] was 50%.
With Nc1ccccc1C(=O)Nc1ccc(-c2ccc(NC(=O)c3ccccc3N)c(C(=O)O)c2)cc1C(=O)O [Beispiel 6, 4,4'-Bis-(2-aminobenzamido)biphenyl-3,3'-dicarbonsäure] the pIC50 [1, 2] was 7.42, the pIC50 ([1]; read-out: vGLUT (Ratte), IC50) was 7.05 and the “vGLUT (Ratte), Hemmung [%]” value [1] was 101%.
For O=C(O)c1cc(NC(=O)c2cccc3ccccc23)c(C(=O)O)cc1NC(=O)c1cccc2ccccc12 [Beispiel 7, 2,5-Bis-[(naphthalin-1-carbonyl)-amino]-terephthalsäure], the pIC50 ([1]; read-out: vGLUT (Ratte), IC50) was 5.63 and the “vGLUT (Ratte), Hemmung [%]” value [1] was 78%.
In the case of Cc1ccc(S(=O)(=O)Nc2ccc(-c3ccc(NS(=O)(=O)c4ccc(C)cc4)c(C(=O)O)c3)cc2C(=O)O)cc1 [Beispiel 8, 4,4'-Bis-(4-methylphenylsulfonamid)biphenyl-3,3'-dicarbonsäure, Dinatriumsalz], the “Bennett-Test Ratte; Hemmung [%]” value (Sprague-Dawley Ratten; Ratte, 4,64 mg/kg (i.v.)) was 37%@ 4,64 mg/kg (i.v.), the “Phenylchinon-Writhing-Test Maus i.v. [Anzahl Writhing-Reaktionen in 15 min. p. appl.]” value (NMRI-Mäuse; Kontrolle 9,1±0,41) was 7,8±1,16@10 mg/kg, and the “Anzahl Tiere mit ≤ 3 Writhing-Reaktionen” value (NMRI-Mäuse; Maus i.v.) was “(Anzahl Tiere mit ≤ 3 Writhing-Reaktionen: 1)”. The “Formalin-Test Maus i.p.; Hemmung [%]” value (Mäusen (NMRI)) was 51%@21,5 mg/kg, the pIC50 [1, 2] was 6.31 and the “vGLUT (Ratte), Hemmung [%]” value [1] was 92%.
In the case of Cc1ccc(S(=O)(=O)Nc2ccc(Cc3ccc(NS(=O)(=O)c4ccc(C)cc4)c(C(=O)O)c3)cc2C(=O)O)cc1 [Beispiel 9, 5,5'-Methylen-bis(2-(4-methylphenylsulfonamido)benzoesäure)], the “vGLUT (Ratte), Hemmung [%]” value [1] was 47%.
With Cc1ccc(S(=O)(=O)Nc2ccc(-c3ccc(NS(=O)(=O)c4ccc(C)cc4)c(C(=O)O)c3)cc2C(=O)O)cc1 [Beispiel 11, 4,4'-Bis(tolyl-4-sulfonylamino)biphenyl-3,3'-dicarbonsäure] the pIC50 [1, 2] was 5.82 and the “vGLUT (Ratte), Hemmung [%]” value [1] was 97%.
O=C(Nc1ccc(-c2ccc(NC(=O)c3ccccc3)c(C(=O)[O-])c2)cc1C(=O)[O-])c1ccccc1.[Na+].[Na+] [Beispiel 12, 4,4'-Bis-(benzamido)-biphenyl-3,3'-dicarbonsäure, Dinatriumsalz] was tested, and the “Bennett-Test Ratte; Hemmung [%]” value (Sprague-Dawley Ratten; Ratte, 0,2 mg/kg/5 ml (i.p)) was 38%@0,2 mg/kg/5 ml (i.p), the pIC50 [1, 2] was 7.41 and the “vGLUT (Ratte), Hemmung [%]” value [1] was 102%.
With Nc1ccccc1C(=O)Nc1ccc(-c2ccc(NC(=O)c3ccccc3N)c(C(=O)O)c2)cc1C(=O)O [Beispiel 13, 4,4'-Bis-(2-aminobenzamido)biphenyl-3,3'-dicarbonsäure, Dinatriumsalz] the pIC50 [1, 2] was 6.22 and the “vGLUT (Ratte), Hemmung [%]” value [1] was 96%.
In the case of Nc1ccc(-c2ccc(N)c(C(=O)O)c2)cc1C(=O)O [Beispiel 14, 4,4'-Bisaminobiphenyl-3,3'-dicarbonsäure, Dinatriumsalz], the pIC50 [1, 2] was 4.32 and the “vGLUT (Ratte), Hemmung [%]” value [1] was 24%.
